Laboratory results from BindingDB's records for doi:10.1016/j.bmcl.2004.12.073 (Vernalis (R&D), 2005).

Molecular target: Cyclin-A2/Cyclin-dependent kinase 2 (Homo sapiens, UniProt P24941)
Experiment: CDK Inhibition Assay
Conditions: pH 7.5; 22 °C
Procedure: In vitro kinase assay using purified CDK2/Cyclin A was incubated at room temperature with substrate, and test compounds in the presence of 100 uM ATP/ [gamma-33P] ATP. Assays were performed in 96-well polypropylene plates. 33P incorporation into substrate was measured using a scintillation counter.

## CC(C)c1cnn2c(Nc3ccc(S(C)(=O)=O)cc3)cc(Cl)nc12 [5-chloro-N-(4-methanesulfonylphenyl)-3-(propan-2-yl)pyrazolo[1,5-a]pyrimidin-7-amine]
  IC50: 0.23 µM
